system: Rattus norvegicus; assay: Peripheral cholinergic effects in male wistar rats when administered orally at a dose of 3 mg/Kg.; assay type: functional, organism-based; conditions: not given

| Structure (SMILES) | Activity |
| --- | --- |
| CCN1CCc2cc(C(=O)CCC3CCN(Cc4ccccc4)CC3)ccc21 | No activity |
| O=C(CCC1CCN(Cc2ccc(F)cc2)CC1)c1ccc2c(c1)CCN2 | No activity |
| CCCCN1CCc2cc(C(=O)CCC3CCN(Cc4ccccc4)CC3)ccc21 | No activity |
| CN1CCc2cc(C(=O)CCC3CCN(Cc4ccccc4)CC3)ccc21 | No activity |
| O=C(CCC1CCN(Cc2ccccc2F)CC1)c1ccc2c(c1)CCN2 | No activity |
| CCCCCN1CCc2cc(C(=O)CCC3CCN(Cc4ccccc4)CC3)ccc21 | No activity |
| CN1CCCCc2ccc(C(=O)CCC3CCN(Cc4ccccc4)CC3)cc21 | No activity |
| Cc1cccc(CN2CCC(CCC(=O)c3ccc4c(c3)NCCCC4)CC2)c1 | No activity |
| Cc1cccc(CN2CCC(CCC(=O)c3ccc4c(c3)CCN4)CC2)c1 | No activity |
| O=C(CCC1CCN(Cc2cccc(F)c2)CC1)c1ccc2c(c1)NCCCC2 | No activity |
| O=C(CCC1CCN(Cc2ccccc2)CC1)c1ccc2c(c1)CCN2 | No activity |
| O=C(CCC1CCN(Cc2ccccc2)CC1)c1ccc2c(c1)CCCCN2 | No activity |
| O=C(CCC1CCN(Cc2ccccc2)CC1)c1ccc2c(c1)NCCC2 | No activity |
| CN1CCCc2ccc(C(=O)CCC3CCN(Cc4ccccc4)CC3)cc21 | No activity |
| O=C(CCC1CCN(Cc2cccc(F)c2)CC1)c1ccc2c(c1)CCN2 | No activity |
| O=C(CCC1CCN(Cc2ccccc2)CC1)c1ccc2c(c1)CCN2Cc1ccccc1 | No activity |

system: Rattus norvegicus; assay: Effect of compound on peripheral cholinergic effects in male wistar rats when administered orally at a dose of 1 mg/Kg; No significant change; assay type: functional, organism-based; conditions: not given

| Structure (SMILES) | Activity |
| --- | --- |
| O=C(CCC1CCN(Cc2cccc(Cl)c2)CC1)c1ccc2c(c1)CCCN2 | No activity |
| O=C(CCC1CCN(Cc2ccccc2)CC1)c1ccc2c(c1)NCCCCC2 | No activity |
| CN1CCCc2cc(C(=O)CCC3CCN(Cc4cccc(Cl)c4)CC3)ccc21 | No activity |

system: Rattus norvegicus; assay: Effect of compound on peripheral cholinergic effects in male wistar rats when administered orally at a dose of 10 mg/Kg; fasciculation, lacrimation; assay type: functional, organism-based; conditions: not given

| Structure (SMILES) | Activity |
| --- | --- |
| O=C(CCC1CCN(Cc2ccc(F)cc2)CC1)c1ccc2c(c1)CCN2 | Fasciculation, Lacrimation |
| CN1CCc2cc(C(=O)CCC3CCN(Cc4ccccc4)CC3)ccc21 | Fasciculation, Lacrimation |
| O=C(CCC1CCN(Cc2ccccc2)CC1)c1ccc2c(c1)CCN2 | Fasciculation, Lacrimation |
| O=C(CCC1CCN(Cc2ccccc2)CC1)c1ccc2c(c1)NCCCCC2 | Fasciculation, Lacrimation |
| CN1CCCc2cc(C(=O)CCC3CCN(Cc4cccc(Cl)c4)CC3)ccc21 | Fasciculation, Lacrimation |

system: Rattus norvegicus; assay: Effect of compound on peripheral cholinergic effects in male wistar rats when administered orally at a dose of 30 mg/Kg; fasciculation, lacrimation, salivation; assay type: functional, organism-based; conditions: not given

| Structure (SMILES) | Activity |
| --- | --- |
| CN1CCc2cc(C(=O)CCC3CCN(Cc4ccccc4)CC3)ccc21 | Fasciculation, Lacrimation, Salivation |
| CN1CCCc2cc(C(=O)CCC3CCN(Cc4cccc(Cl)c4)CC3)ccc21 | Fasciculation, Lacrimation, Salivation |

system: Rattus norvegicus; assay: Effect of compound on peripheral cholinergic effects in male wistar rats when administered orally at a dose of 30 mg/Kg; fasciculation, diarrhea; assay type: functional, organism-based; conditions: not given

| Structure (SMILES) | Activity |
| --- | --- |
| CCCCN1CCc2cc(C(=O)CCC3CCN(Cc4ccccc4)CC3)ccc21 | Fasciculation, Diarrhea |

system: Rattus norvegicus; assay: Effect of compound on peripheral cholinergic effects in male wistar rats when administered orally at a dose of 30 mg/Kg; […]; assay type: functional, organism-based; conditions: not given

| Structure (SMILES) | Activity |
| --- | --- |
| Cc1cccc(CN2CCC(CCC(=O)c3ccc4c(c3)NCCCC4)CC2)c1 | Fasciculation |

species: Rattus norvegicus; assay: Inhibition of circling behavior, percentage of control was reported; (p<0.05); assay type: functional; parameters: scale not given: the % may be the effect or the level left; conditions: not given

| Structure (SMILES) | Control [%] |
| --- | --- |
| CN1CCc2cc(C(=O)CCC3CCN(Cc4ccccc4)CC3)ccc21 | 56.4 |
| CN1CCCc2cc(C(=O)CCC3CCN(Cc4cccc(Cl)c4)CC3)ccc21 | 58 |

system: Rattus norvegicus; assay: Effect of compound on peripheral cholinergic effects in male wistar rats when administered orally at a dose of 3 mg/Kg; fasciculation; assay type: functional, organism-based; conditions: not given

| Structure (SMILES) | Activity |
| --- | --- |
| O=C(CCC1CCN(Cc2cccc(Cl)c2)CC1)c1ccc2c(c1)CCCN2 | Fasciculation |
| CN1CCCc2cc(C(=O)CCC3CCN(Cc4cccc(Cl)c4)CC3)ccc21 | Fasciculation |

system: Rattus norvegicus; assay: Number of circlings observed for 30 min at 3 mg/kg orally administered dose in rats; assay type: functional; conditions: route oral

| Structure (SMILES) | No. of circlings |
| --- | --- |
| CCN1CCc2cc(C(=O)CCC3CCN(Cc4ccccc4)CC3)ccc21 | 89.7 |
| O=C(CCC1CCN(Cc2ccc(F)cc2)CC1)c1ccc2c(c1)CCN2 | 107.4 |
| CCCCN1CCc2cc(C(=O)CCC3CCN(Cc4ccccc4)CC3)ccc21 | 86.4 |
| CN1CCc2cc(C(=O)CCC3CCN(Cc4ccccc4)CC3)ccc21 | 68.7 |
| CCCCCN1CCc2cc(C(=O)CCC3CCN(Cc4ccccc4)CC3)ccc21 | 79 |
| CN1CCCCc2ccc(C(=O)CCC3CCN(Cc4ccccc4)CC3)cc21 | 100.3 |
| Cc1cccc(CN2CCC(CCC(=O)c3ccc4c(c3)CCN4)CC2)c1 | 104 |
| O=C(CCC1CCN(Cc2cccc(F)c2)CC1)c1ccc2c(c1)NCCCC2 | 98.4 |
| O=C(CCC1CCN(Cc2ccccc2)CC1)c1ccc2c(c1)CCN2 | 52.4 |
| O=C(CCC1CCN(Cc2ccccc2)CC1)c1ccc2c(c1)CCCCN2 | 94.7 |
| O=C(CCC1CCN(Cc2ccccc2)CC1)c1ccc2c(c1)NCCC2 | 60.5 |
| CN1CCCc2ccc(C(=O)CCC3CCN(Cc4ccccc4)CC3)cc21 | 105.6 |
| O=C(CCC1CCN(Cc2cccc(F)c2)CC1)c1ccc2c(c1)CCN2 | 84.3 |
| O=C(CCC1CCN(Cc2cccc(Cl)c2)CC1)c1ccc2c(c1)CCCN2 | 77.4 |
| O=C(CCC1CCN(Cc2ccccc2)CC1)c1ccc2c(c1)CCN2Cc1ccccc1 | 66.8 |
| CN1CCCc2cc(C(=O)CCC3CCN(Cc4cccc(Cl)c4)CC3)ccc21 | 54.5 |

system: Rattus norvegicus; assay: Effect of compound on peripheral cholinergic effects in male wistar rats when administered orally at a dose of 30 mg/Kg; fasciculation, salivation; assay type: functional, organism-based; conditions: not given

| Structure (SMILES) | Activity |
| --- | --- |
| CCN1CCc2cc(C(=O)CCC3CCN(Cc4ccccc4)CC3)ccc21 | Fasciculation, Salivation |
| O=C(CCC1CCN(Cc2ccccc2F)CC1)c1ccc2c(c1)CCN2 | Fasciculation, Salivation |
| O=C(CCC1CCN(Cc2ccccc2)CC1)c1ccc2c(c1)CCCCN2 | Fasciculation, Salivation |

system: Rattus norvegicus; assay: Effect of compound on peripheral cholinergic effects in male wistar rats when administered orally at a dose of 10 mg/Kg; salivation; assay type: functional, organism-based; conditions: not given

| Structure (SMILES) | Activity |
| --- | --- |
| O=C(CCC1CCN(Cc2ccccc2F)CC1)c1ccc2c(c1)CCN2 | Salivation |

target: T1, Acetylcholinesterase (Rattus norvegicus, UniProt P37136); conditions: not given
T1 sequence (P37136 whole entry): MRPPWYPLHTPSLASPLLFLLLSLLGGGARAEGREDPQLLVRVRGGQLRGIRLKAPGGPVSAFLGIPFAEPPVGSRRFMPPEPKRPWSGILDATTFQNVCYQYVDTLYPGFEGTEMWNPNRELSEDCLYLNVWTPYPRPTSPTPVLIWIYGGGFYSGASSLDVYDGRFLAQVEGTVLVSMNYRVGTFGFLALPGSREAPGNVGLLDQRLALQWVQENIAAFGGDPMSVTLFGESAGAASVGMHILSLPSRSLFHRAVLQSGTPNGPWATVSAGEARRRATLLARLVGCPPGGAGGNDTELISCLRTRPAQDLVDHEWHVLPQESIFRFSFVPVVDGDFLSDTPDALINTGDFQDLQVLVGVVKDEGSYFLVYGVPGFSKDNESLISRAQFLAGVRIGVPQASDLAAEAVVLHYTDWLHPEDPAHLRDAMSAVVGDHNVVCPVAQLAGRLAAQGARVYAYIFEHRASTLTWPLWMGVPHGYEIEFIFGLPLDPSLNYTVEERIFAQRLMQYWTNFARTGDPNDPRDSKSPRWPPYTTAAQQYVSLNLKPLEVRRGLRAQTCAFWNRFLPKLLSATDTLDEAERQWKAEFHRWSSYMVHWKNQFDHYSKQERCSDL

| Structure (SMILES) | IC50 [nM] |
| --- | --- |
| O=C(CCC1CCN(Cc2ccc(F)cc2)CC1)c1ccc2c(c1)CCN2 | 89 |
| O=C(CCC1CCN(Cc2ccccc2F)CC1)c1ccc2c(c1)CCN2 | 43 |
| Cc1cccc(CN2CCC(CCC(=O)c3ccc4c(c3)NCCCC4)CC2)c1 | 224 |
| O=C(CCC1CCN(Cc2cccc(Cl)c2)CC1)c1ccc2c(c1)CCCN2 | 54 |
| CN1CCCc2cc(C(=O)CCC3CCN(Cc4cccc(Cl)c4)CC3)ccc21 | 24 |

system: Rattus norvegicus; assay: Effect of compound on peripheral cholinergic effects in male wistar rats when administered orally at a dose of 30 mg/Kg; fasciculation, lacrimation; assay type: functional, organism-based; conditions: not given

| Structure (SMILES) | Activity |
| --- | --- |
| O=C(CCC1CCN(Cc2ccc(F)cc2)CC1)c1ccc2c(c1)CCN2 | Fasciculation, Lacrimation |
| O=C(CCC1CCN(Cc2cccc(F)c2)CC1)c1ccc2c(c1)NCCCC2 | Fasciculation, Lacrimation |
| O=C(CCC1CCN(Cc2ccccc2)CC1)c1ccc2c(c1)CCN2 | Fasciculation, Lacrimation |
| CN1CCCc2ccc(C(=O)CCC3CCN(Cc4ccccc4)CC3)cc21 | Fasciculation |
| O=C(CCC1CCN(Cc2cccc(Cl)c2)CC1)c1ccc2c(c1)CCCN2 | Fasciculation, Lacrimation |
| O=C(CCC1CCN(Cc2ccccc2)CC1)c1ccc2c(c1)NCCCCC2 | Fasciculation, Lacrimation |
| O=C(CCC1CCN(Cc2ccccc2)CC1)c1ccc2c(c1)CCN2Cc1ccccc1 | Fasciculation, Lacrimation |

species: Rattus norvegicus; conditions: dose 10 mg/kg; route oral
Description: Number of circlings observed for 30 min at 10 mg/kg orally administered dose in rats

| Structure (SMILES) | No. of circlings |
| --- | --- |
| CN1CCc2cc(C(=O)CCC3CCN(Cc4ccccc4)CC3)ccc21 | 51.9 |
| O=C(CCC1CCN(Cc2ccccc2F)CC1)c1ccc2c(c1)CCN2 | 86.7 |
| Cc1cccc(CN2CCC(CCC(=O)c3ccc4c(c3)NCCCC4)CC2)c1 | 61.4 |

system: Rattus norvegicus; assay: Number of circlings observed for 30 min at 1 mg/kg orally administered dose in rats; assay type: functional; conditions: route oral

| Structure (SMILES) | No. of circlings |
| --- | --- |
| O=C(CCC1CCN(Cc2cccc(Cl)c2)CC1)c1ccc2c(c1)CCCN2 | 70.1 |
| O=C(CCC1CCN(Cc2ccccc2)CC1)c1ccc2c(c1)NCCCCC2 | 60.7 |
| CN1CCCc2cc(C(=O)CCC3CCN(Cc4cccc(Cl)c4)CC3)ccc21 | 76.5 |

system: Rattus norvegicus; assay: Effect of compound on peripheral cholinergic effects in male wistar rats when administered orally at a dose of 3 mg/Kg; salivation; assay type: functional, organism-based; conditions: not given

| Structure (SMILES) | Activity |
| --- | --- |
| O=C(CCC1CCN(Cc2ccccc2)CC1)c1ccc2c(c1)NCCCCC2 | Salivation |

system: Rattus norvegicus; assay: Peripheral cholinergic effects in male wistar rats when administered orally at a dose of 10 mg/Kg.; assay type: functional, organism-based; conditions: not given

| Structure (SMILES) | Activity |
| --- | --- |
| CCN1CCc2cc(C(=O)CCC3CCN(Cc4ccccc4)CC3)ccc21 | Fasciculation |
| CCCCN1CCc2cc(C(=O)CCC3CCN(Cc4ccccc4)CC3)ccc21 | Fasciculation |
| CN1CCCCc2ccc(C(=O)CCC3CCN(Cc4ccccc4)CC3)cc21 | Fasciculation |
| Cc1cccc(CN2CCC(CCC(=O)c3ccc4c(c3)CCN4)CC2)c1 | Fasciculation |
| O=C(CCC1CCN(Cc2cccc(F)c2)CC1)c1ccc2c(c1)NCCCC2 | Fasciculation |
| O=C(CCC1CCN(Cc2ccccc2)CC1)c1ccc2c(c1)CCCCN2 | Fasciculation |
| O=C(CCC1CCN(Cc2ccccc2)CC1)c1ccc2c(c1)NCCC2 | Fasciculation |
| CN1CCCc2ccc(C(=O)CCC3CCN(Cc4ccccc4)CC3)cc21 | Fasciculation |
| O=C(CCC1CCN(Cc2cccc(F)c2)CC1)c1ccc2c(c1)CCN2 | Fasciculation |
| O=C(CCC1CCN(Cc2cccc(Cl)c2)CC1)c1ccc2c(c1)CCCN2 | Fasciculation |
| O=C(CCC1CCN(Cc2ccccc2)CC1)c1ccc2c(c1)CCN2Cc1ccccc1 | Fasciculation |

system: Rattus norvegicus; assay: Effect of compound on peripheral cholinergic effects in male wistar rats when administered orally at a dose of 10 mg/Kg; fasciculation, salivation; assay type: functional, organism-based; conditions: not given

| Structure (SMILES) | Activity |
| --- | --- |
| CCCCCN1CCc2cc(C(=O)CCC3CCN(Cc4ccccc4)CC3)ccc21 | Fasciculation, Salivation |

Source: ChEMBL document CHEMBL1127586, “Central cholinergic agents. 6. Synthesis and evaluation of 3-[1-(phenylmethyl)-4-piperidinyl]-1-(2,3,4,5-tetrahydro-1H-1-benzazepi n-8-yl)-1-propanones and their analogs as central selective acetylcholinesterase inhibitors” (J Med Chem, 1994)
